Measurements taken from patent US10781224B2, “Bis(oxymethyl)phosphinic acid and biogenic metal salts thereof as regulators of plant growth and development” (priority 2016, dated 2020).

Test system: rice (Diamant variety)
Assay: Rice seed treatment with BHMPA salts: germinating power
Assay type: in vivo
Conditions: for Mass, wet, root, + % to control / Mass, wet, sprout / Mass, wet, sprout, + % to control / Length, root / Length, root, + % to control / Length, sprout / Length, sprout, + % to control / Mass, dry, root / Mass, dry, root, + % to control / Mass, dry, sprout / Mass, dry, sprout, + % to control / Mass, wet, root: rice seeds
Outline: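 Seeds (50 per Petri dish on two layers of filter paper) soaked 1 h in BHMPA or its Ca, Mg, Na, Co, Mn, Cu or Zn salts at 1·10^−6-1·10^−12%, with water controls. Germination energy read on day 4, germination on day 8 (wheat) or day 7 (rice, corn), as % means of four replicates. Germinating power taken as root and sprout length plus wet and dry mass per 100 seedlings.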

[1] = solution concentration 1 · 10^−7%
[2] = solution concentration 1 · 10^−8%
[3] = solution concentration 1 · 10^−9%
[4] = solution concentration 1 · 10^−10%
[5] = solution concentration 1 · 10^−11%
[6] = solution concentration 1 · 10^−12%
[7] = rice, vs control, 1·10^−9% solution

O.O.O=P([O-])(CO)CO.O=P([O-])(CO)CO.[Mn+2] [Mn-salt, Manganese BHMPA Salt]
Mass, wet, root, + % to control [1]: 23% | Mass, wet, sprout [1]: 2.12 g/100 plantlings | Mass, wet, sprout, + % to control [1]: 23% | Length, root [2]: 6.5 cm | Length, root, + % to control [2]: 8% | Length, sprout [2]: 3.1 cm | Length, sprout, + % to control [2]: 24% | Mass, dry, root [2]: 0.28 g/100 plantlings | Mass, dry, root, + % to control [2]: 40% | Mass, dry, sprout [2]: 0.41 g/100 plantlings | Mass, dry, sprout, + % to control [2]: 58% | Mass, wet, root [2]: 1.30 g/100 plantlings | Mass, wet, root, + % to control [2]: 33% | Mass, wet, sprout [2]: 2.26 g/100 plantlings | Mass, wet, sprout, + % to control [2]: 31% | Length, root [3]: 6.8 cm | Length, root, + % to control [3]: 13% | Length, sprout [3]: 3.3 cm | Length, sprout, + % to control [3]: 32% | Mass, dry, root [3]: 0.32 g/100 plantlings | Mass, dry, root, + % to control [3]: 60% | Mass, dry, sprout [3]: 0.44 g/100 plantlings | Mass, dry, sprout, + % to control [3]: 69% | Mass, wet, root [3]: 1.44 g/100 plantlings | Mass, wet, root, + % to control [3]: 47% | Mass, wet, sprout [3]: 2.41 g/100 plantlings | Mass, wet, sprout, + % to control [3]: 40% | Length, root [4]: 6.7 cm | Length, root, + % to control [4]: 12% | Length, sprout [4]: 3.0 cm | Length, sprout, + % to control [4]: 12% | Mass, dry, root [4]: 0.26 g/100 plantlings | Mass, dry, root, + % to control [4]: 30% | Mass, dry, sprout [4]: 0.39 g/100 plantlings | Mass, dry, sprout, + % to control [4]: 50% | Mass, wet, root [4]: 1.33 g/100 plantlings | Mass, wet, root, + % to control [4]: 36% | Mass, wet, sprout [4]: 2.30 g/100 plantlings | Mass, wet, sprout, + % to control [4]: 34% | Length, root [5]: 6.5 cm | Length, root, + % to control [5]: 8% | Length, sprout [5]: 2.9 cm | Length, sprout, + % to control [5]: 16% | Mass, dry, root [5]: 0.23 g/100 plantlings | Mass, dry, root, + % to control [5]: 15% | Mass, dry, sprout [5]: 0.36 g/100 plantlings | Mass, dry, sprout, + % to control [5]: 38% | Mass, wet, root [5]: 1.29 g/100 plantlings | Mass, wet, root, + % to control [5]: 31% | Mass, wet, sprout [5]: 2.21 g/100 plantlings | Mass, wet, sprout, + % to control [5]: 28% | Length, root [6]: 6.3 cm | Length, root, + % to control [6]: 5% | Length, sprout [6]: 2.7 cm | Length, sprout, + % to control [6]: 8% | Mass, dry, root [6]: 0.20 g/100 plantlings | Mass, dry, root, + % to control [6]: 0% | Mass, dry, sprout [6]: 0.32 g/100 plantlings | Mass, dry, sprout, + % to control [6]: 23% | Mass, wet, root [6]: 1.27 g/100 plantlings | Mass, wet, root, + % to control [6]: 29% | Mass, wet, sprout [6]: 2.14 g/100 plantlings | Mass, wet, sprout, + % to control [6]: 24% | dry mass of the roots increased by [7]: 60% | dry mass of the sprouts increased by [7]: 69% | length of the root increased by [7]: 13% | length of the sprout increased by [7]: 32% | wet mass of the roots increased by [7]: 47% | wet mass of the sprouts increased by [7]: 40%
